Laboratory results as given in US20180064821A1, “SITE SPECIFIC CURCUMIN-POLYMER MOLECULAR COMPLEXES AND METHODS OF TREATING COLON DISEASES AND INFLAMMATION” (priority 2016, published 2018).
Read-outs that look alike come from different tables or passages of the source.

Legend:
[1] = Aqueous stability of curcumin complexes; type: physicochemical; conditions: 37° C.
Protocol: At different time intervals (0, 1, 2, 4, 6, 8, 12, 16, 20, 24 h), the samples were collected, centrifuged (20,000 g) and the supernatant was passed through […] filter.

[2] = tested on: HT29 colo-rectal cancer cells; assay: pH dependent cellular uptake by flow cytometry, HT29; type: cell-based, human
Protocol: (§1) Briefly, 2×10^5 cells were seeded in 24 well-plates and allowed to adhere for 24 h. […] After 4 h, the cells were washed with PBS, trypsinized, fixed using 4% paraformaldehyde (PFA) and stored at 4° C. until further analysis using flow cytometer. […] Sample acquisition was performed using BD Biosciences FACS LSR Fortessa and data analyzed using FlowJo software (FlowJo LLC).

[3] = tested on: HCT116 colo-rectal cancer cells; assay: pH dependent cellular uptake by flow cytometry, HCT116; type: cell-based, human
Protocol: as §1

[4] = tested on: HT29 human colo-rectal cancer cells; assay: MTT cell viability assay, HT29; type: cell-based; conditions: 48 h incubation
Protocol: (§2) Following 48 h of incubation, 0.5 mg/ml MTT solution was added to each well, and the cells were incubated for further 4 h at 37° C. After 4 h, 150 μl of DMSO was added to each well and incubated for 1 h at 37° C. to dissolve the formazan crystals. The absorbance was then measured at 570 nm with a reference wavelength of 650 nm using UV-visible spectrophotometer. The results are represented in terms of percentage inhibition of cell proliferation compared to that of vehicle control. The cellular viability was assessed as a percentage of the control by using the following equation.

[5] = tested on: HCT116 human colo-rectal cancer cells; assay: MTT cell viability assay, HCT116; type: cell-based; conditions: 48 h incubation
Protocol: as §2

- initial curcumin present ([1]; SIF (pH 6.7-6.9) and pH 7.0 buffer with 10% methanol, 24 h): ~10%
- initial curcumin present ([1]; aqueous buffers with 10% methanol, within 2 h): ~30%
- IC50 ([4]; listed as Unformulated curcumin at pH 7.0, read-out: IC50 (mean ± SD) In HT29 Cells): > 80 µM
- IC50 ([4]; Homo sapiens, HT-29, 48 h, read-out: IC50 (mean ± SD) In HT29 Cells): 41.8 ± 1.86 µM
- IC50 ([5]; listed as Unformulated curcumin at pH 7.0, read-out: IC50 (mean ± SD) In HCT116 Cells): > 80 µM
- IC50 ([5]; listed as curcumin in DMSO, read-out: IC50 (mean ± SD) In HCT116 Cells): 18.4 ± 1.94 µM
SMILES: COc1cc(/C=C/C(=O)CC(=O)/C=C/c2ccc(O)c(OC)c2)ccc1O [Curcumin, (1E,6E)-1,7-bis(4-hydroxy-3-methoxyphenyl)-1,6-heptadiene-3,5-dione]
- Cellular uptake of curcumin, Mean fluorescence intensity ([2]; pH 5.5, 4 h): 2704 ± 221
- Cellular uptake of curcumin, Mean fluorescence intensity ([2]; pH 7.0, 4 h): 2429 ± 247
- Cellular uptake of curcumin, Mean fluorescence intensity ([3]; pH 5.5, 4 h): 2543 ± 72
- Cellular uptake of curcumin, Mean fluorescence intensity ([3]; pH 7.0, 4 h): 3514 ± 975
